Structures can show the parent of a compound that is named as a salt. Where two headings read alike, the source gives them in different places.
Tests used:
Type in all cases: cell-based
P. aeruginosa ATCC 27853 = experiment: Broth Dilution Method MIC; details: Pseudomonas aeruginosa, ATCC27853, In Vitro
Text: (§1) Compounds of the formula I and Ia, including their active geometric and/or optical isomers, their salts and esters and hydrates of those compounds can be used as agents to combat bacterial infections (including urinary tract infections and respiratory infections) in mammalian species, e.g., dogs, cats, horses, etc., and humans. […]. The […] activity of selected compounds of formulas I and Ia as measured by the Minimum Inhibitory Concentration in micrograms/ml utilizing the Agar Well Diffusion Method, Agar Dilution Method or Broth Dilution Method against a variety of Gram-positive and Gram-negative organisms, is as follows:
(§2) In Vitro MIC (ug/ml) Broth Dilution Method

P. aeruginosa B = experiment: Broth Dilution Method MIC; details: Pseudomonas aeruginosa
Text: as §1, §2

P. aeruginosa 6148B = experiment: Broth Dilution Method MIC; details: Pseudomonas aeruginosa, In Vitro
Text: as §1, §2

P. aeruginosa K77/61 = experiment: Broth Dilution Method MIC; details: Pseudomonas aeruginosa
Text: as §1, §2

P. aeruginosa 185/H [1] = experiment: Broth Dilution Method MIC; details: Pseudomonas aeruginosa, In Vitro
Text: as §1, §2

P. aeruginosa 1973E = experiment: Broth Dilution Method MIC; details: Pseudomonas aeruginosa, In Vitro
Text: as §1, §2

P. aeruginosa Stone 130 [2] = experiment: Broth Dilution Method MIC; details: Pseudomonas aeruginosa, STONE130, In Vitro
Text: as §1, §2

P. aeruginosa 765 = experiment: Broth Dilution Method MIC; details: Pseudomonas aeruginosa, In Vitro
Text: as §1, §2

P. aeruginosa 5700 = experiment: Broth Dilution Method MIC; details: Pseudomonas aeruginosa, In Vitro
Text: as §1, §2

P. aeruginosa 503-56 = experiment: Broth Dilution Method MIC; details: Pseudomonas aeruginosa, 50356, In Vitro
Text: as §1, §2

P. aeruginosa 8780 = experiment: Broth Dilution Method MIC; details: Pseudomonas aeruginosa, In Vitro
Text: as §1, §2

P. aeruginosa 8710 = experiment: Broth Dilution Method MIC; details: Pseudomonas aeruginosa
Text: as §1, §2

P. aeruginosa K77/WT = experiment: Broth Dilution Method MIC; details: Pseudomonas aeruginosa, In Vitro
Text: as §1, §2

E. cloacae 9570A = experiment: Agar Dilution Method MIC; details: Enterobacter cloacae, In Vitro
Text: as §1
(§3) In Vitro MIC (ug/ml) Agar Dilution Method

S. aureus Giorgid = experiment: Agar Dilution Method MIC; details: Staphylococcus aureus, In Vitro
Text: as §1, §3

S. aureus 95 = experiment: Agar Dilution Method MIC; details: Staphylococcus aureus, In Vitro
Text: as §1, §3

S. aureus ATCC 25923 = experiment: Agar Dilution Method MIC; details: Staphylococcus aureus, ATCC25923, In Vitro
Text: as §1, §3

P. aeruginosa 185/H [3] = experiment: Agar Dilution Method MIC; details: Pseudomonas aeruginosa, In Vitro
Text: as §1, §3

E. cloacae P99 = experiment: Agar Dilution Method MIC; details: Enterobacter cloacae
Text: as §1, §3

P. aeruginosa Stone 130 [4] = experiment: Agar Dilution Method MIC; details: Pseudomonas aeruginosa, STONE130, In Vitro
Text: as §1, §3

S. marscescens SM = experiment: Agar Dilution Method MIC; details: In Vitro
Text: as §1, §3

P. mirabilis 190 = experiment: Agar Dilution Method MIC; details: Proteus mirabilis, In Vitro
Text: as §1, §3

S. aureus Smith = experiment: Agar Dilution Method MIC; details: Staphylococcus aureus, In Vitro
Text: as §1, §3

P. aeruginosa 130 = experiment: Agar Dilution Method MIC; details: Pseudomonas aeruginosa, In Vitro
Text: as §1, §3

S. aureus 1059B = experiment: Agar Dilution Method MIC; details: Staphylococcus aureus, In Vitro
Text: as §1, §3

P. vulgaris ATCC 6380 = experiment: Agar Dilution Method MIC; details: Proteus vulgaris, ATCC6380, In Vitro
Text: as §1, §3

[5] = In Vitro, Broth Dilution, P. aeruginosa B, read-out: MIC

SMILES | MIC (P. aeruginosa ATCC 27853) [µg/mL] | MIC (P. aeruginosa B; [5]) [µg/mL] | MIC (P. aeruginosa 6148B) [µg/mL] | MIC (P. aeruginosa K77/61) [µg/mL] | MIC (P. aeruginosa 185/H [1]) [µg/mL] | MIC (P. aeruginosa 1973E) [µg/mL] | MIC (P. aeruginosa Stone 130 [2]) [µg/mL] | MIC (P. aeruginosa 765) [µg/mL] | MIC (P. aeruginosa 5700) [µg/mL] | MIC (P. aeruginosa 503-56) [µg/mL] | MIC (P. aeruginosa 8780) [µg/mL] | MIC (P. aeruginosa K77/WT) [µg/mL] | MIC (P. aeruginosa 8710; 8710) [µg/mL] | other results
CON=C(C(=O)NC1C(=O)N2C(C(=O)O)=C(COC(=O)c3ccc(O)c(O)c3)CSC12)c1csc(N)n1 (stereo not drawn) [Compound A, [6R-[6 alpha,7 beta(Z)]]-7-[[2-amino-4-thiazolyl)(methoxyimino)acetyl]amino]-3-[[[(3,4-dihydroxyphenyl)carbonyl]oxy]methyl]-8-oxo-5-thia-1-azabicyclo[4.2.0]oct-2-ene-2-carboxylic acid monosodium salt] | 8 | 2 | 2 | 0.25 | 0.016 | 4 | 2 | 4 | 8 | 4 | 0.5 | 1 | – | MIC (P. aeruginosa 8710; In Vitro, Broth Dilution, P. aeruginosa 8710, read-out: MIC): 2 µg/mL
CC(=O)Oc1ccc(C(=O)OCC2=C(C(=O)O)N3C(=O)C(NC(=O)C(=NOCC(N)=O)c4csc(N)n4)C3SC2)cc1OC(C)=O (stereo not drawn) [Compound B, [6R-[alpha,7 beta(Z)]]-3-[[[3,4-bis(acetyloxy)benzoyl]oxy]methyl]-7-[[[2-amino-4-thiazolyl][(2-amino-2-oxoethoxy)imino]acetyl]amino]-8-oxo-5-thia-1-azabicyclo[4.2.0]oct-2-ene-2-carboxylic acid monosodium salt] | – | – | – | – | – | – | – | – | – | – | – | – | – | MIC (E. cloacae 9570A): 1 µg/mL; MIC (S. aureus Giorgid): 8 µg/mL; MIC (S. aureus 95): 64 µg/mL; MIC (S. aureus ATCC 25923): 2 µg/mL; MIC (P. aeruginosa 185/H [3]): 2 µg/mL; MIC (E. cloacae P99): 32 µg/mL; MIC (P. aeruginosa Stone 130 [4]): 4 µg/mL; MIC (S. marscescens SM): 1 µg/mL; MIC (P. mirabilis 190): 0.063 µg/mL; MIC (S. aureus Smith): 4 µg/mL; MIC (P. aeruginosa 130): 4 µg/mL; MIC (S. aureus 1059B): 4 µg/mL; MIC (P. vulgaris ATCC 6380): 0.016 µg/mL
CC(C)(ON=C(C(=O)NC1C(=O)N2C(C(=O)O)=C(COC(=O)c3ccc(O)c(O)c3)CSC12)c1csc(N)n1)C(=O)O (stereo not drawn) [Compound C, [6R-[6 alpha,7 beta(Z)]]-7-[[(2-amino-4-thiazolyl)(1-carboxy-1-methylethoxy)imino]acetyl]amino]-3-[[3,4-dihydroxybenzoyl)oxy]methyl]-8-oxo-5-thia-1-azabicyclo[4.2.0]oct-2-ene-2-carboxylicacid disodium salt] | 32 | – | 0.031 | > 0.008 | 0.031 | 2 | 0.125 | 8 | 2 | 0.25 | > 0.008 | 0.63 | 0.063 | MIC (P. aeruginosa B): 0.125 µg/mL
CCN1CCN(C(=O)N[C@@H](C(=O)N[C@@H]2C(=O)N3C(C(=O)O)=C(COC(=O)c4ccc(O)c(O)c4)CS[C@H]23)c2ccccc2)C(=O)C1=O [Compound D, [6R-[6 alpha,7 beta(R*)]]-7-[[[[(4-ethyl-2,4-dioxo-1-piperazinyl)carbonyl]amino]phenyl-acetyl]amino-3-[[(3,4-dihydroxy)benzoyl]oxy]-methyl]-8-oxo-5-thia-1-azabicyclo[4.2.0.]-oct-2-ene-2-carboxylic acid monosodium salt] | 0.5 | 0.25 | 0.125 | 0.016 | 0.125 | 4 | 0.5 | 128 | 4 | 4 | 0.016 | 0.25 | 0.125 | –

Source: patent US5112967A, “Process for synthesizing antibacterial cephalosporin compounds” (Hoffmann-La Roches Inc., priority 1990, dated 1992)
